# According to PMC2112634 (The Journal of Cell Biology, 1983):
# Read-outs that look alike come from different tables or passages of the source.
# T1: CCK-binding sites on rat pancreatic plasma membranes (Rattus norvegicus, UniProt P30551)
# T1 sequence (P30551 1-444): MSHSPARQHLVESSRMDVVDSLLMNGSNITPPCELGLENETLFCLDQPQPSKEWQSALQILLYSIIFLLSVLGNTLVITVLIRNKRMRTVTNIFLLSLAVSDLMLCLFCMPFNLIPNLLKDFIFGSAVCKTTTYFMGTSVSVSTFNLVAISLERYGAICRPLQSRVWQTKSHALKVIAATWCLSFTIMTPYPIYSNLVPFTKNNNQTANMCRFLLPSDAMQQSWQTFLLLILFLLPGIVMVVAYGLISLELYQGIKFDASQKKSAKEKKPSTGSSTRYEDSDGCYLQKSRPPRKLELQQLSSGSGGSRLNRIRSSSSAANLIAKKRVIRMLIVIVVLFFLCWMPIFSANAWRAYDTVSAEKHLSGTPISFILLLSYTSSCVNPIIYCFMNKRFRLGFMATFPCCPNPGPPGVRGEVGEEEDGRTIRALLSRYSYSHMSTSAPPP
# T2: CCK-binding site (Mr 85,000 protein) of rat pancreatic plasma membranes (Rattus norvegicus, UniProt P30551)
# T2 sequence (P30551 1-444): T1 sequence (P30551 1-444)
# B1: cholecystokinin (peptide, UniProt P06307 21-115, looked up)
# Cholecystokinin: QPVPPADPAGSGLQRAEEAPRRQLRVSQRTDGESRAHLGALLARYIQQARKAPSGRMSIVKNLQNLDPSHRISDRDYMGWMDFGRRSAEEYEYPS
# modifications: Cholecystokinin
# Legend:
# [1] = test system: CCK-binding sites on rat pancreatic acinar cells; assay: Light microscopic autoradiography of pancreatic acini; format: cell-based; conditions: ~0.1 nM 125I-CCK-33, 15 min at 37C; Fig. 2a; similar results at 2 min
# [2] = test system: rabbit anti-CCK IgG (antiserum No. L-48); assay: Affinity labeling of anti-CCK antibodies; format: binding; conditions: 0.07 nM 125I-CCK-33, 24 h at 4C, 1 mM DSS; Fig. 1 lane a
# [3] = target: T1, CCK-binding sites on rat pancreatic plasma membranes; assay: Competitive inhibition of 125I-CCK-33 binding to pancreatic plasma membranes
# [4] = 125I-labeled Bolton-Hunter reagent; cited from earlier work
# [5] = test system: CCK-binding sites on rat pancreatic acinar cells; format: cell-based
# [6] = target: T2, CCK-binding site (Mr 85,000 protein) of rat pancreatic plasma membranes; assay: Affinity labeling; conditions: micromolar concentrations of competitor; unpublished results
# [7] = test system: CCK receptors of mouse pancreatic acini; conditions: electron microscopic autoradiography; cited from earlier work
# [8] = test system: CCK receptor in rat pancreatic acini; conditions: rat pancreatic acinar cell; cited from earlier work
# [9] = test system: CCK-binding sites of rat pancreatic plasma membranes; conditions: ultraviolet irradiation cross-linking; cited from earlier work
# [10] = 0.1 nM 125I-CCK-33, 2 or 15 min, 37C, % of total grains
# [11] = 2 min, 37C, 0.1 nM 125I-CCK-33, mean ± SEM, 17 micrographs, Table I
# [12] = 15 min, 37C, 0.1 nM 125I-CCK-33, mean ± SEM, 18 micrographs, Table I
molecule,measurement,setting,value
"125I-CCK-33: CCK-33 acylated with 125I-labeled Bolton-Hunter reagent (KAPSGRVSMIKNLQSLDPSHRISDRDYMGWMDF; Cholecystokinin-33 125I-Bolton-Hunter labeled; UniProt P01356 70-102, looked up)",distribution of autoradiographic grains (light microscopy),[1],primarily delineated the basal and lateral boundaries of the acinar cells
same,labeling of heavy and light chains of anti-CCK IgG,[2],labeling of the heavy and light chains of anti-CCK IgG was obtained
same,peptide released from binding sites during cross-linking and subsequent washing,[3],< 5%
same,secretagogue activity after Bolton-Hunter acylation,[4],retention of secretagogue activity
same,grains over cytoplasm (summary),[5]; [10],~ 30%
same,grains over embedding medium (summary),[5]; [10],5- 8%
same,grains over nucleus (summary),[5]; [10],1-2%
same,grains within 1 HD of the lateral and basal plasmalemma,[5]; [10],approximately 60%
same,Basal PM grain density,[5]; [11],2.57 0.08 grains/µm2
same,"Cytoplasm, % total grains",[5]; [11],34.0 ± 1.3 % total grains
same,Lateral PM grain density,[5]; [11],1.10 0.05 grains/µm2
same,"Lateral PM, % total grains",[5]; [11],12.1 ± 0.4 % total grains
same,distribution of grains at 4C,"[5]; 2 min or 15 min at 4C, data not shown, compared with 37C",Qualitatively similar results
same,relative grain density over cytoplasm or nucleus compared to embedding medium,"[5]; 15 min, 37C",no statistically significant increase
same,Apical PM grain density,[5]; [12],0.11 ± 0.02 grains/µm2
same,"Apical PM, % total grains",[5]; [12],0.1 % total grains
same,Basal PM grain density,[5]; [12],2.46 0.11 grains/µm2
same,"Basal PM, % total grains",[5]; [12],34.8 0.6 % total grains
same,"Cytoplasm, % total grains",[5]; [12],30.0 ± 0.8 % total grains
same,"Embedding medium, % total grains",[5]; [12],8.1 0.6 % total grains
same,Lateral PM grain density,[5]; [12],2.32 0.07 grains/µm2
same,"Lateral PM, % total grains",[5]; [12],25.5 ± 0.6 % total grains
same,specific binding sites on centroacinar or ductular cells,"[5]; autoradiography, 125I-CCK-33",no apparent specific
same,relative grain density over cytoplasm and nucleus (summary),"[5]; either time point, 37C",never exceeded unity
insulin: polypeptide hormone tested at micromolar concentration as specificity control,effect on labeling of membrane proteins by 125I-CCK-33,[6],unaffected
secretin: peptide tested at micromolar concentration as specificity control,effect on labeling of membrane proteins by 125I-CCK-33,[6],unaffected
B1,localization of CCK receptors,[7],localized to the basolateral plasmalemma of mouse pancreatic acini
same,high affinity binding sites per cell,[8],approximately 650 binding sites per cell
same,low affinity binding sites per cell,[8],"~100,000 binding sites per cell"
same,Mr of specifically labeled polypeptide,[9],"76,000"
